Experimental findings from paper PMC3543149 (Diabetologia, 2012) are described below.

This experiment deals with T1, PKC-ι (Homo sapiens, UniProt P41743).
T1 sequence (P41743 2-596): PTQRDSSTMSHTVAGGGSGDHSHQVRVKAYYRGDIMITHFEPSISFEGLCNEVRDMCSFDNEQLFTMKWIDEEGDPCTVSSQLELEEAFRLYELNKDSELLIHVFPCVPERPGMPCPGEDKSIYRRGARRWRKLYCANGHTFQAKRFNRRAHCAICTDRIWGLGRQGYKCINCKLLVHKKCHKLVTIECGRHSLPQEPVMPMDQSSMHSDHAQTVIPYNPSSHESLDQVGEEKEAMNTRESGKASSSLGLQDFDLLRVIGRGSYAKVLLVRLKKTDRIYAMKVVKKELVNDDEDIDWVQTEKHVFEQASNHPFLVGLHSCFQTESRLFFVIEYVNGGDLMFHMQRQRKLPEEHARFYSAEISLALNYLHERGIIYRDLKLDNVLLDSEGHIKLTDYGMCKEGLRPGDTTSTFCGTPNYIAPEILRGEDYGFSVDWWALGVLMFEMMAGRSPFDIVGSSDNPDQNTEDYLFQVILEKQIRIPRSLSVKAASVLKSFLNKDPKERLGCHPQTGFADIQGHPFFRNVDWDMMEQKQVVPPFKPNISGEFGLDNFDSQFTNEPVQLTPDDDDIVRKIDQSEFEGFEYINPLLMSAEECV
Briefly: […]-ATP kinase assay of recombinant PKC-ι activated by PIP3, dose response. Type of experiment: biochemical.

Take `NC(=O)c1ncn([C@@H]2C[C@H](COP(=O)(O)O)[C@@H](O)[C@H]2O)c1N` [ICAPP]: the IC50 – broadly, the concentration that gives 50% inhibition – was in the range of 0.01 to 0.1 µM.
